# Biological target: Sphingosine kinase 1 (Homo sapiens, UniProt Q9NYA1)
# Assay: Inhibition of human N-terminal MGHHHHHHHHHHSSG-tagged SphK1 (2 to 384 residues) expressed in Escherichia coli Rosetta-2 by fluorescence assay
# Chain of Sphingosine kinase 1 (Q9NYA1 whole entry, the tested form may be a part): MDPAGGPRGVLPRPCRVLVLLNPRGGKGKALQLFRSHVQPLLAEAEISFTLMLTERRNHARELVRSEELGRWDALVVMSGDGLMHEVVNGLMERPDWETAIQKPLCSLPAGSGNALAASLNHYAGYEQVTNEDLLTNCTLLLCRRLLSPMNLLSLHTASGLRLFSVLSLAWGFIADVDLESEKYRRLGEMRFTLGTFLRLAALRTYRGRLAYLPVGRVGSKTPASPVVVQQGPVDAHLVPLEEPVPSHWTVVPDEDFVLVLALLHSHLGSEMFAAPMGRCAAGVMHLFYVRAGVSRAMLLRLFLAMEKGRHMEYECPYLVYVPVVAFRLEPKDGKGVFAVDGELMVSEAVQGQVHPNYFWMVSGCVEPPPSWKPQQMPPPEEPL
row,SMILES,IC50
1,CCCCOC(=O)Nc1ccc(C(O)CN2CCN(c3ccncc3)CC2)cc1 (stereo not drawn),55 µM
2,CC1Cc2c(N/N=C/c3ccc(Cl)cc3)ncnc2N(C)c2ccccc21 (stereo not drawn),12 µM
3,CCCCOC(=O)Nc1cccc(C(O)CN2CCN(c3ccncc3)CC2)c1 (stereo not drawn),60 µM
